Experimental data reported in patent US20080234232A1, “Methods and compositions for targeting AFAP” (priority 2007, published 2008).

Key:
PH1 domain of AFAP-110 [1] = target: T1, PH1 domain of AFAP-110 (Gallus gallus, UniProt Q90738); assay: Lipid binding assay (Far Western), GST-PH1; conditions: 0.5 μg/ml fusion protein, lipids spotted on membrane
T1 construct: AFAP-110 contains two PH domains, one amino terminal (PH1) and the other carboxy terminal (PH2); made in house; host or cells: bacteria
Protocol: (§1) FIG. 5: The phospholipid binding properties of the PH domains of AFAP-110. A) Pleckstrin homology fusion proteins, GST-PH1, GST-PH2 and GST-DAPP1, were purified from bacteria by affinity chromatography. Phospholipids were spotted onto PVDF membranes as described in the methods section. The membranes were incubated overnight with 0.5 μg/ml • GST-PH1, GST-PH2 or GST-DAPP1. Washed membranes were incubated with anti-GST antibody and exposed to film.
B) Pleckstrin homology fusion protein, GST-PH1, was purified from bacteria by affinity chromatography. Two-fold changes in concentration (1.6 pg-100.0 pg) of phospholipids were spotted onto PVDF membranes as described in the methods section. The PIP arrays were incubated with 0.5 μg/ml fusion protein and probed with anti-GST antibody.
Pleckstrin homology (PH) fusion proteins GST-PH1, GST-PH2 and GST-DAPP1, were purified from bacteria by affinity chromatography. A Far Western Blot procedure was used for detecting the fusion protein binding to nitrocellulose immobilized phospholipids (Stevenson, J. Met. al., 1998); PIP strips and PIP arrays were purchased from Echelon, Inc. Overlay assays measured the relative amounts of GST-tagged fusion protein bound to spotted phospholipids. A plasmid encoding GST-DAPP1 previously shown to bind Ptdlns-3,4-P2 and Ptdlns-3,4,5-P3 (Dowler, S. et. al., 1999) was used as a control, kindly provided by Mark Lemmon (Lemmon, M. A., 2003). The membranes were wetted with methanol and then transferred to blocking solution composed of 3% BSA in TBS containing 1% Tween-20 (TBS-T) for 1 hour at 4° C. Membranes were incubated with 0.5 μg/ml each fusion proteins in TBS-T overnight at 4° C. Following incubation, membranes were rinsed three times with TBS-T, washed for 5 minutes and incubated at 4° C. for 1 hour with anti-GST antibody (1:20000 in TBS-T). Following the standard wash procedure, membranes were incubated at 4° C. for 30 minutes with peroxidase-conjugated secondary antibody (1:30000 in TBS-T). The washed membranes were incubated with chemiluminescence reagent and exposed to X-ray film.

PH domain of DAPP1 = target: T2, PH domain of DAPP1 (Homo sapiens, UniProt Q9UN19); assay: Lipid binding assay (Far Western), GST-DAPP1; conditions: 0.5 μg/ml fusion protein
T2 construct: GST-fusion proteins that expressed the PH domain of DAPP1 as a positive control; made in house; host or cells: bacteria (plasmid provided by Mark Lemmon)
T2 sequence (Q9UN19 164-259 limits assumed): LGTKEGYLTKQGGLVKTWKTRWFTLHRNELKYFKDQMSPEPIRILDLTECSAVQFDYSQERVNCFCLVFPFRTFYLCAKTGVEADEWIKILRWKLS
Protocol: as §1
C) Fusion protein, GST-DAPP1, was purified from bacteria by affinity chromatography. Two-fold changes in concentration (1.6 pg-100.0 pg) of phospholipids were spotted onto PVDF membranes as described in the methods section. Membranes were incubated with 0.5 μg/ml fusion proteins. Washed membranes were probed using with anti-GST antibody.
Pleckstrin homology (PH) fusion proteins GST-PH1, GST-PH2 and GST-DAPP1, were purified from bacteria by affinity chromatography. A Far Western Blot procedure was used for detecting the fusion protein binding to nitrocellulose immobilized phospholipids (Stevenson, J. Met. al., 1998); PIP strips and PIP arrays were purchased from Echelon, Inc. Overlay assays measured the relative amounts of GST-tagged fusion protein bound to spotted phospholipids. […]

PH1 domain of AFAP-110 [2] = target: T1, PH1 domain of AFAP-110; assay: Lipid sedimentation assay, GST-PH1; type: binding; conditions: PC vesicles with lipid 19:1 (PC:PS 7:3), 0.025 mM GST fusion protein
Protocol: E) Lipid sedimentation assay was performed using pleckstrin homology fusion protein GST-PH1 as described in the methods sections. The GST-PH1 fusion protein has the capacity to co-sediment with several lipids containing vesicles as indicated in the pellet (P). Soluble fractions (S) containing unbound GST-PH1 purified fusion proteins were resolved by SDS-PAGE and detected by Coomassie stain.
A sedimentation assay was used to detect PH domain protein association with membrane phospholipids. Phospholipid stock solutions: 1 mg/ml L-α-Ptdlns-4-P, 1.0 mg/ml 1,2-dipalmitoyl-sn-glycero-3-Ptdlns-3-P, 0.1 mg/ml 1,2-dioleoyl-sn-glycero-3-Ptdlns-3,4-P2, and 1 mg/ml L-α-Ptdlns-4,5-P2 in chloroform:methanol:water (60:30:4). However, 10 mg/ml L-α-phosphatidylinositol, 0.1 mg/ml L-α Ptdlns-3-P, 0.2 mg/ml L-α-Ptdlns-3,4,5-P3, 10 mg/ml L-α-phosphatidylserine, and 10 mg/ml L-α-phosphatidylcholine in chloroform neat. All lipid stocks were purged with dry N2 and stored −20° C. The lipid vesicles were prepared as follows utilizing a sonication method. Briefly, in a heavy walled tube, PC and another stock phospholipid (e.g. Ptdlns, Ptdlns-3-P, Ptdlns-4-P, Ptdlns-3,4-P2, Ptdlns-3,5-P2, Ptdlns-3,4,5-P3, or PC) were combined in a 19:1 molar ratio; PC and PS were combined in a 7:3 molar ratio. Lipids were dried with a stream of N2 and traces of solvent were removed by vacuum and resuspended to 5.2 mM PC in buffer B [10 mM HEPES, pH 7.5, 50 mM KCl, 0.5 mM EGTA, and 1.0 mM MgCl2]. The resulting phospholipid sheets were sonicated to form vesicles. Samples were prepared to contain 1.7 mM vesicle PC and 0.025 mM recombinant GST fusion protein (DAPP1 or PH1) in buffer B. Samples were incubated 60 min and centrifuged with a Beckman Airfuge for 15 min at room temperature. 16% of the supernatant and 100% of the pellet from each sample was used for analysis by Laemmli method of SDS polyacrylamide gel electrophoresis. The gels were stained with SYPRO Orange or Coomassie Blue to visualize the proteins.

T1 sequence (Q90738 153-249 limits assumed): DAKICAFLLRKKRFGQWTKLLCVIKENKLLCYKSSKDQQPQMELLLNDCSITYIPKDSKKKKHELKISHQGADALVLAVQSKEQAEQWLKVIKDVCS

## Phosphoinositol-3,4,5-trisphosphate [Ptdlns-3,4,5-P3]
PH1 domain of AFAP-110 [1]
  binding of GST-PH1 to immobilized phospholipid (far western): binding the weakest
PH domain of DAPP1
  binding of GST-DAPP1 to immobilized phospholipid (far western): binds well
PH1 domain of AFAP-110 [2]
  binding (co-sedimentation) of GST-PH1 to lipid vesicles containing the lipid: low
